Laboratory results from US6461997B1, “Triazole sulfones having herbicidal activity” (Monsanto Technology LLC, priority 1999, dated 2002).

Legend:
[1] = tested on: GALAP (catchweed bedstraw); assay: Pre-emergence herbicidal activity, cool season; assay type: in vivo, Galium aparine; conditions: lowest tested rate with 80% or greater inhibition; rates 300, 100, 30, 10 g/ha; about 14 days
Method in brief: (§1)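 Seeds sown in sterilised fertilised topsoil received surface-applied compound in 50:50 acetone/water, typically at 300, 100, 30 and 10 g/ha, then greenhouse-grown at 30/21° C (warm-season species) or 18/13° C (cool-season species). Percent inhibition versus untreated plants was scored at about 14 days, giving GR80; an asterisk marks activity short of 80% at the top rate.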

POLCO (wild buckwheat) = assay: Pre-emergence herbicidal activity, cool season; assay type: in vivo, Polygonum convolvulus; conditions: lowest tested rate with 80% or greater inhibition; rates 300, 100, 30, 10 g/ha; about 14 days
Method in brief: (§2)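 Herbicidal efficacy was judged visually as percent inhibition compared with untreated plants some 14 days after treatment, giving GR80 over doses of 10 to 300 g/ha. Proso millet and crabgrass grew at 30/21 °C; blackgrass and wild buckwheat grew at 18/13 °C.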

SINAR (wild mustard) = assay: Pre-emergence herbicidal activity, cool season; assay type: in vivo, Sinapis arvensis; conditions: lowest tested rate with 80% or greater inhibition; rates 300, 100, 30, 10 g/ha; about 14 days
Method in brief: as §1

[2] = tested on: VERPE (creeping speedwell); assay: Pre-emergence herbicidal activity, cool season; assay type: in vivo, Veronica persicaria; conditions: lowest tested rate with 80% or greater inhibition; rates 300, 100, 30, 10 g/ha; about 14 days
Method in brief: as §1

SASKR (russian thistle) = assay: Pre-emergence herbicidal activity, cool season; assay type: in vivo, Salsola kali; conditions: lowest tested rate with 80% or greater inhibition; rates 300, 100, 30, 10 g/ha; about 14 days
Method in brief: as §1

STEME (common chickweed) = assay: Pre-emergence herbicidal activity, cool season; assay type: in vivo, Stellaria media; conditions: lowest tested rate with 80% or greater inhibition; rates 300, 100, 30, 10 g/ha; about 14 days
Method in brief: as §1

[3] = tested on: LAMPU (purple deadnettle); assay: Pre-emergence herbicidal activity, cool season; assay type: in vivo, Lamium purpureum; conditions: lowest tested rate with 80% or greater inhibition; rates 300, 100, 30, 10 g/ha; about 14 days
Method in brief: as §1

SETVI (green foxtail) = assay: Pre-emergence herbicidal activity, cool season; assay type: in vivo, Setaria viridis; conditions: GR80 = lowest tested rate (300, 100, 30, 10 g/ha) with 80% or greater inhibition; approx. 14 days after treating; 18/13° C.
Method in brief: as §1

AVEFA (wild oat) = assay: Pre-emergence herbicidal activity, cool season; assay type: in vivo, Avena fatua; conditions: GR80 = lowest tested rate (300, 100, 30, 10 g/ha) with 80% or greater inhibition; approx. 14 days after treating; 18/13° C.
Protocol: (§3) Tables 5 to 8 summarize results of tests conducted as described below to determine the pre-emergence herbicidal activity, in the form of a GR80 value, of illustrative compounds of this invention. […] Compounds of the invention were typically applied at rates of 300, 100, 30, and 10 g/ha. Where herbicidal activity was evident but 80% inhibition was not achieved at the highest rate tested, an asterisk (*) is shown in the following tables.
(§4) The pre-emergence tests were conducted by the following procedure. Topsoil was sieved to pass through a 1.27 cm screen. Fertilizer was added to the topsoil and the mixture was then sterilized by heating. The topsoil mixture was placed in a pot and compacted to a depth of 1.0 to 1.25 cm from the top of the pot. Seeds of each of several monocotyledonous and dicotyledonous annual plant species were placed on top of the soil. Additional soil was subsequently placed over the seeds to level-fill the pot. A known amount of each test compound dissolved or suspended in an appropriate organic solvent was diluted with a 50:50 mix of acetone and water and applied to the surface of the soil. After treatment the plants were placed in a greenhouse where they received 0.64 cm of overhead irrigation. All subsequent watering consisted of a light overhead mist and/or subirrigation as needed for germination and growth. Tables 5 and 6 below relate to warm season plant species which were placed after pre-emergence treatment in a greenhouse with a 30/21° C. day/night temperature regime. Tables 7 and 8 below relates to cool season plant species placed after pre-emergence treatment in a greenhouse or growth chamber with an 18/13° C. day/night temperature regime.
(§5) Approximately 14 days after planting and treating, the plants were observed and herbicidal efficacy recorded as percent inhibition by comparison with untreated plants.
(§6) The plant species usually regarded as weeds which were utilized in the tests are identified in the tables below according to the following legend, in which “d” indicates a dicotyledonous species and “m” a monocotyledonous species. All monocotyledonous species included in the tests herein are grasses.

[4] = tested on: AGSST (creeping bentgrass); assay: Pre-emergence herbicidal activity, cool season; assay type: in vivo, Agrostis stolonifera; conditions: GR80 = lowest tested rate (300, 100, 30, 10 g/ha) with 80% or greater inhibition; approx. 14 days after treating; 18/13° C.
Method in brief: as §1

ECHCG (barnyardgrass) = assay: Pre-emergence herbicidal activity, warm season; assay type: in vivo, Echinochloa crus-galli; conditions: GR80 = lowest tested rate (300, 100, 30, 10 g/ha) with 80% or greater inhibition; approx. 14 days after treating; 30/21° C.
Method in brief: (§7)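 Activity is expressed as the rate giving 80% inhibition, with 300, 100, 30 and 10 g/ha typically tested. An asterisk marks activity short of 80% at the top rate. Warm-season grasses were held at 30/21 °C; cool-season blackgrass and wild buckwheat at 18/13 °C; scoring at about 14 days.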

[5] = tested on: PANMI (wild proso millet); assay: Pre-emergence herbicidal activity, warm season; assay type: in vivo, Panicum miliaceum; conditions: GR80 = lowest tested rate (300, 100, 30, 10 g/ha) with 80% or greater inhibition; approx. 14 days after treating; 30/21° C.
Method in brief: as §2

[6] = tested on: SORHA (johnsongrass (seedling)); assay: Pre-emergence herbicidal activity, warm season; assay type: in vivo, Sorghum halepense; conditions: GR80 = lowest tested rate (300, 100, 30, 10 g/ha) with 80% or greater inhibition; approx. 14 days after treating; 30/21° C.
Method in brief: as §7

SETFA (giant foxtail) = assay: Pre-emergence herbicidal activity, warm season; assay type: in vivo, Setaria faberi; conditions: GR80 = lowest tested rate (300, 100, 30, 10 g/ha) with 80% or greater inhibition; approx. 14 days after treating; 30/21° C.
Method in brief: as §7

PANDI (fall panicum) = assay: Pre-emergence herbicidal activity, warm season; assay type: in vivo, Panicum dichotomiflorum; conditions: GR80 = lowest tested rate (300, 100, 30, 10 g/ha) with 80% or greater inhibition; approx. 14 days after treating; 30/21° C.
Protocol: as §3, §4, §5, §6

BROTE (downy brome) = assay: Pre-emergence herbicidal activity, cool season; assay type: in vivo, Bromus tectorum; conditions: GR80 = lowest tested rate (300, 100, 30, 10 g/ha) with 80% or greater inhibition; approx. 14 days after treating; 18/13° C.
Protocol: as §3, §4, §5, §6

ABUTH (velvetleaf) = assay: Pre-emergence herbicidal activity, warm season; assay type: in vivo, Abutilon theophrasti; conditions: GR80 = lowest tested rate (300, 100, 30, 10 g/ha) with 80% or greater inhibition; approx. 14 days after treating; 30/21° C.
Protocol: as §3, §4, §5, §6

SOLNI (black nightshade) = assay: Pre-emergence herbicidal activity, warm season; assay type: in vivo, Solanum nigrum; conditions: GR80 = lowest tested rate (300, 100, 30, 10 g/ha) with 80% or greater inhibition; approx. 14 days after treating; 30/21° C.
Method in brief: as §1

AMARE (redroot pigweed) = assay: Pre-emergence herbicidal activity, warm season; assay type: in vivo, Amaranthus retroflexus; conditions: GR80 = lowest tested rate (300, 100, 30, 10 g/ha) with 80% or greater inhibition; approx. 14 days after treating; 30/21° C.
Method in brief: as §1

[7] = tested on: CHEAL (common lambsquarters); assay: Pre-emergence herbicidal activity, warm season; assay type: in vivo, Chenopodium album; conditions: GR80 = lowest tested rate (300, 100, 30, 10 g/ha) with 80% or greater inhibition; approx. 14 days after treating; 30/21° C.
Method in brief: as §1

POROL (common purslane) = assay: Pre-emergence herbicidal activity, warm season; assay type: in vivo, Portulaca oleracea; conditions: GR80 = lowest tested rate (300, 100, 30, 10 g/ha) with 80% or greater inhibition; approx. 14 days after treating; 30/21° C.
Method in brief: as §1

[8] = tested on: CIRAR (canada thistle (seedling)); assay: Pre-emergence herbicidal activity, warm season; assay type: in vivo, Cirsium arvense; conditions: GR80 = lowest tested rate (300, 100, 30, 10 g/ha) with 80% or greater inhibition; approx. 14 days after treating; 30/21° C.
Method in brief: as §1

[9] = tested on: BRAPP (broadleaf signalgrass); assay: Pre-emergence herbicidal activity, warm season; assay type: in vivo, Brachiaria platyphylla; conditions: GR80 = lowest tested rate (300, 100, 30, 10 g/ha) with 80% or greater inhibition; approx. 14 days after treating; 30/21° C.
Method in brief: as §7

DIGSA (large crabgrass) = assay: Pre-emergence herbicidal activity, warm season; assay type: in vivo, Digitaria sanguinalis; conditions: GR80 = lowest tested rate (300, 100, 30, 10 g/ha) with 80% or greater inhibition; approx. 14 days after treating; 30/21° C.
Method in brief: as §2

ALOMY (blackgrass) = assay: Pre-emergence herbicidal activity, cool season; assay type: in vivo, Alopecurus myosuroides; conditions: GR80 = lowest tested rate (300, 100, 30, 10 g/ha) with 80% or greater inhibition; approx. 14 days after treating; 18/13° C.
Method in brief: as §2

LOLMG (annual ryegrass) = assay: Pre-emergence herbicidal activity, cool season; assay type: in vivo, Lolium multiflorum; conditions: GR80 = lowest tested rate (300, 100, 30, 10 g/ha) with 80% or greater inhibition; approx. 14 days after treating; 18/13° C.
Protocol: as §3, §4, §5, §6

SMILES | Pre-emergence activity GR80, GALAP [1] | Pre-emergence activity GR80, POLCO (POLCO (wild buckwheat)) | Pre-emergence activity GR80, SINAR (SINAR (wild mustard)) | Pre-emergence activity GR80, VERPE [2] | Pre-emergence activity GR80, SASKR (SASKR (russian thistle)) | Pre-emergence activity GR80, STEME (STEME (common chickweed)) | Pre-emergence activity GR80, LAMPU [3] | Pre-emergence activity (GR80) SETVI (SETVI (green foxtail)) | Pre-emergence activity (GR80) AVEFA (AVEFA (wild oat)) | Pre-emergence activity (GR80) AGSST [4] | Pre-emergence activity (GR80) ECHCG (ECHCG (barnyardgrass)) | Pre-emergence activity (GR80) PANMI [5] | Pre-emergence activity (GR80) SORHA [6] | Pre-emergence activity (GR80) SETFA (SETFA (giant foxtail)) | also measured
CN(C)C(=O)n1cnc(S(=O)(=O)C(F)F)n1 [Example 26] | 300 g/ha | 300 g/ha | [empty] | 300 g/ha | 300 g/ha | [empty] | 300 g/ha | 300 g/ha | 300 g/ha | 30 g/ha |  |  |  |  | 
COCCN(C)C(=O)n1cnc(S(=O)(=O)C(F)(F)Br)n1 [Example 40] | [empty] | [empty] | 100 g/ha | 100 g/ha | 300 g/ha | 300 g/ha | [empty] |  |  | 30 g/ha | 300 g/ha | 300 g/ha | 300 g/ha | 300 g/ha | Pre-emergence activity (GR80) PANDI (PANDI (fall panicum)): 300 g/ha; Pre-emergence activity (GR80) BROTE (BROTE (downy brome)): 100 g/ha
CCCN(CC)C(=O)n1cnc(S(=O)(=O)C(F)(F)C(F)F)n1 [Example 63] | 30 g/ha | 300 g/ha | 30 g/ha | 30 g/ha | 30 g/ha | 30 g/ha | 30 g/ha | 100 g/ha | 300 g/ha | 10 g/ha | 100 g/ha | 100 g/ha | 100 g/ha | 100 g/ha | Pre-emergence activity (GR80) ABUTH (ABUTH (velvetleaf)): 300 g/ha; Pre-emergence activity (GR80) SOLNI (SOLNI (black nightshade)): 300 g/ha; Pre-emergence activity (GR80) AMARE (AMARE (redroot pigweed)): 100 g/ha; Pre-emergence activity (GR80) CHEAL [7]: 100 g/ha; Pre-emergence activity (GR80) POROL (POROL (common purslane)): 300 g/ha; Pre-emergence activity (GR80) CIRAR [8]: 300 g/ha; Pre-emergence activity (GR80) BRAPP [9]: 300 g/ha; Pre-emergence activity (GR80) DIGSA (DIGSA (large crabgrass)): 300 g/ha; Pre-emergence activity (GR80) ALOMY (ALOMY (blackgrass)): 300 g/ha; Pre-emergence activity (GR80) LOLMG (LOLMG (annual ryegrass)): 100 g/ha
